We go through 11 molecules from ChEMBL document CHEMBL1201862, “PubChem BioAssay data set” (2004).

Test systems include Malme-3M; SF-295; HT-29; A498; HCC 2998; M14; CCRF-CEM; LOX IMVI; HOP-92; NCI-H522; OVCAR-8; MOLT-4; SN12C; COLO 205; HCT-15; NCI-H23; 786-0; ACHN; A549; SR.
What all share (assay): NCI anticancer screen, dose series, 48 h

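Following 48 hours of exposure in 96-well plates, responses at five concentrations were used to interpolate endpoints linearly. Here, GI50 denotes the concentration required for 50% inhibition of growth.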 Active and inactive are the calls of the source. Cut-off read from the data, not from the text of the source: active = GI50 up to about 1.1 µM and inactive = higher.

Take `CCCCCCCCSC1=C(Cl)C(=O)C(OC)=C(OC)C1=O`: the GI50 is 7.73 µM (inactive) with Malme-3M; 12.5 µM (inactive) in the test on SF-295; 16.9 µM (inactive) in the test with HT-29; 12.3 µM (inactive) with A498; 15.2 µM (inactive) in the test on HCC 2998; 2.16 µM (inactive) in the test with M14. Further, the GI50 with CCRF-CEM is 5.68 µM (inactive); with LOX IMVI, 4.57 µM (inactive); in the test with HOP-92 it was 17 µM (inactive); with NCI-H522, 2.47 µM (inactive); in the test on OVCAR-8, 12 µM (inactive); in the test with MOLT-4, 3.12 µM (inactive). Besides, the GI50 is 5.09 µM (inactive) in the test on SN12C; 17.1 µM (inactive) in the test with COLO 205; 6.34 µM in the test on HCT-15; 13 µM (inactive) in the test on NCI-H23; 12.5 µM (inactive) in the test on 786-0; 10 µM (inactive) in the test on ACHN. In addition, in the test with A549, the GI50 was 17.9 µM (inactive).

Consider `NC(CCc1ncc(C(=O)O)s1)C(=O)O` (centres undefined), for which the GI50 with Malme-3M, in the test on SF-295, in the test on HT-29, with A498, in the test with HCC 2998 and in the test on M14 was > 100 µM (inactive) each time. Moreover, the GI50 in the test with CCRF-CEM, with LOX IMVI, with HOP-92, in the test with NCI-H522, in the test on OVCAR-8 and with MOLT-4 was > 100 µM (inactive) each time. Besides, the GI50 is > 100 µM (inactive) in the test on SN12C; > 100 µM (inactive) in the test with COLO 205; more than 100 µM in the test on HCT-15; > 100 µM (inactive) with NCI-H23; > 100 µM (inactive) in the test with 786-0; > 100 µM (inactive) in the test with ACHN. The GI50 in the test with A549 is > 100 µM (inactive).

Take `BrC1=CCC23CC=C(Br)[C@H]4CC2(COC3)C[C@@H]1O4` (some centres undefined): the GI50 in the test with Malme-3M is > 100 µM (inactive); with SF-295, > 100 µM (inactive); with HT-29, > 10 µM (inactive); in the test with SR it was 23.4 µM (inactive); in the test with M14, > 100 µM (inactive); in the test with CCRF-CEM it was 24.4 µM (inactive). The GI50 is 71.6 µM (inactive) with LOX IMVI; 24.3 µM (inactive) in the test with NCI-H522; 63.8 µM (inactive) with OVCAR-8; 25.8 µM (inactive) in the test on MOLT-4; 52 µM (inactive) with SN12C; > 100 µM (inactive) with COLO 205. Also, the GI50 is 47.9 µM in the test on HCT-15; 37.2 µM (inactive) with NCI-H23; 33.2 µM (inactive) with 786-0; > 100 µM (inactive) with ACHN; > 100 µM (inactive) with A549.

With `CC(=O)OC1COC(n2c(=S)n(-c3ccccc3)c(=O)c3cc(Br)ccc32)C(OC(C)=O)C1OC(C)=O` (centres undefined), the GI50 with Malme-3M was 35.4 µM (inactive); with SF-295 it was 27.5 µM (inactive); with HT-29, 72.1 µM (inactive); in the test on A498, 49.4 µM (inactive); with HCC 2998 it was > 100 µM (inactive); in the test on M14 it was 30.8 µM (inactive). Further, the GI50 in the test with CCRF-CEM was > 100 µM (inactive); with LOX IMVI, 57.1 µM (inactive); with HOP-92, 19.5 µM (inactive); in the test on NCI-H522 it was 45.8 µM (inactive); in the test on OVCAR-8 it was 36.1 µM (inactive); in the test with MOLT-4, > 100 µM (inactive). Moreover, the GI50 in the test on SN12C is 71.1 µM (inactive); with COLO 205 it was > 100 µM (inactive); in the test on HCT-15, more than 100 µM; in the test with NCI-H23, 43.7 µM (inactive); in the test with 786-0 it was 34.1 µM (inactive); with ACHN it was > 100 µM (inactive). Also, the GI50 in the test with A549 is 40.4 µM (inactive).

For the molecule `COC(OC)c1cccc2c1C(=O)CCC1(O)c3ccccc3C1C2` (centres undefined), the GI50 in the test with Malme-3M was > 100 µM (inactive); in the test on SF-295 it was 42.1 µM (inactive); with HT-29 it was > 100 µM (inactive); in the test with SR, > 100 µM (inactive); in the test with HCC 2998 it was > 100 µM (inactive); in the test on M14 it was > 100 µM (inactive). Also, the GI50 in the test on CCRF-CEM was 44.9 µM (inactive); in the test with LOX IMVI it was > 100 µM (inactive); with NCI-H522, > 100 µM (inactive); in the test with OVCAR-8, > 100 µM (inactive); in the test with MOLT-4, 65.5 µM (inactive); in the test on SN12C, > 100 µM (inactive). Further, the GI50 was > 100 µM (inactive) with COLO 205; more than 100 µM in the test with HCT-15; 78.9 µM (inactive) in the test with NCI-H23; > 100 µM (inactive) in the test on 786-0; > 100 µM (inactive) with A549.

Consider `CC1(O)C(C)(O)C(C)(O)C1(C)O` (centres undefined), for which the GI50 in the test with Malme-3M, in the test with SF-295, in the test on HT-29, with A498, in the test on HCC 2998 and in the test on M14 was > 100 µM (inactive) in each case. The GI50 in the test with CCRF-CEM, in the test on LOX IMVI, in the test on HOP-92, with NCI-H522, in the test on OVCAR-8 and with MOLT-4 was > 100 µM (inactive) throughout. Also, the GI50 with SN12C was > 100 µM (inactive); in the test with COLO 205, > 100 µM (inactive); in the test on HCT-15, more than 100 µM; in the test on NCI-H23 it was > 100 µM (inactive); with 786-0, > 100 µM (inactive); in the test with ACHN it was > 100 µM (inactive). In addition, the GI50 in the test with A549 is > 100 µM (inactive).

Regarding `C=CCOC1=C(OC(C)=O)C(C2COC(C)(C)O2)OC1=O` (centres undefined), the GI50 is 18.8 µM (inactive) with Malme-3M; 36 µM (inactive) in the test with SF-295; 19.9 µM (inactive) with HT-29; > 100 µM (inactive) with A498; 38.2 µM (inactive) in the test on HCC 2998; 21.2 µM (inactive) with M14. For the same molecule, the GI50 was 17.4 µM (inactive) with CCRF-CEM; 11.7 µM (inactive) in the test on LOX IMVI; 17.7 µM (inactive) in the test on HOP-92; 2.19 µM (inactive) in the test with NCI-H522; 38.8 µM (inactive) with OVCAR-8; 21.6 µM (inactive) in the test on MOLT-4. The GI50 is 24.5 µM (inactive) in the test with SN12C; 20 µM (inactive) with COLO 205; 16.3 µM in the test with HCT-15; 17.8 µM (inactive) with NCI-H23; 18.7 µM (inactive) in the test on 786-0; 17.9 µM (inactive) in the test on ACHN. For the same molecule, the GI50 in the test with A549 is 24 µM (inactive).

In the case of `O=C(OCCN=c1c2ccccc2ccc2ccccc12)c1cc([N+](=O)[O-])cc([N+](=O)[O-])c1`, the GI50 in the test with Malme-3M was 21.5 µM (inactive); with SF-295, > 100 µM (inactive); with HT-29 it was > 100 µM (inactive); with SR, > 100 µM (inactive); in the test with M14, > 100 µM (inactive); in the test with CCRF-CEM, > 100 µM (inactive). Further, the GI50 in the test with LOX IMVI, in the test with HOP-92, in the test with OVCAR-8, in the test with MOLT-4, in the test with SN12C and with COLO 205 was > 100 µM (inactive) in each case. Moreover, the GI50 is more than 100 µM in the test with HCT-15; > 100 µM (inactive) in the test on NCI-H23; > 100 µM (inactive) in the test on 786-0; > 100 µM (inactive) in the test with ACHN; > 100 µM (inactive) in the test on A549.

Turning to `Cc1cccc(NC(=O)/C=C/c2ccc(N(CCC#N)CCC#N)cc2C)c1`, the GI50 in the test on Malme-3M, in the test with SF-295, with HT-29, in the test on A498, in the test on HCC 2998 and in the test with M14 was > 100 µM (inactive) in each case. The GI50 was 33 µM (inactive) in the test with CCRF-CEM; 43.7 µM (inactive) in the test with LOX IMVI; > 100 µM (inactive) with HOP-92; > 100 µM (inactive) in the test with NCI-H522; > 100 µM (inactive) in the test with OVCAR-8; > 100 µM (inactive) with MOLT-4. In addition, the GI50 is > 100 µM (inactive) in the test on SN12C; > 100 µM (inactive) in the test on COLO 205; 29 µM with HCT-15; > 100 µM (inactive) in the test with NCI-H23; > 100 µM (inactive) with 786-0; 70.3 µM (inactive) with ACHN. Also, the GI50 in the test on A549 is > 100 µM (inactive).

`COc1ccc(C2NC(N)=C(C#N)C3=C2C(C)CCC3)cc1OC` (centres undefined): the GI50 in the test on Malme-3M was 28.6 µM (inactive); in the test with SF-295, 12.3 µM (inactive); in the test with HT-29 it was 40 µM (inactive); in the test on SR it was 0.261 µM (active); with M14 it was 59.2 µM (inactive); in the test with CCRF-CEM, 14.6 µM (inactive). Also, the GI50 in the test on LOX IMVI was 35.5 µM (inactive); in the test on OVCAR-8 it was 75.7 µM (inactive); in the test on MOLT-4, 2.75 µM (inactive); in the test with SN12C it was 44.4 µM (inactive); with COLO 205, 37.3 µM (inactive); in the test on HCT-15, 44.3 µM. Further, the GI50 was > 100 µM (inactive) in the test with NCI-H23, 77.1 µM (inactive) in the test with 786-0 and 32.3 µM (inactive) with ACHN.

As for `CC1CC(=O)C2CC(CO)=CCCC2C1(C)CC/C(=C/CO)CO` (centres undefined), the GI50 in the test with Malme-3M, in the test with SF-295, in the test on HT-29, with A498, in the test on HCC 2998 and in the test with M14 was > 100 µM (inactive) each time. For the same molecule, the GI50 with CCRF-CEM was > 100 µM (inactive); with LOX IMVI, > 10 µM (inactive); in the test on HOP-92 it was > 100 µM (inactive); in the test with NCI-H522, 87.9 µM (inactive); in the test on OVCAR-8, > 100 µM (inactive); in the test on MOLT-4 it was > 100 µM (inactive). For the same molecule, the GI50 is > 100 µM (inactive) with SN12C; > 100 µM (inactive) in the test with COLO 205; more than 100 µM with HCT-15; > 100 µM (inactive) in the test on NCI-H23; > 100 µM (inactive) with 786-0; > 100 µM (inactive) in the test with ACHN. In the test on A549, the GI50 is > 100 µM (inactive).
